From US6103709A (priority 1998, dated 2000)
Entries after “also recorded” stand apart in the source; their conditions may differ.

Assays:
[1] = tested on: intestinal Ca2+ transport in perfused chick duodena (transcaltachia); experiment: Transcaltachia assay (rapid stimulation of 45Ca2+ transport in perfused duodena); settings: for Rapid Trans-Caltachia, relative to 1α,25(OH)2 D3: 1α,25(OH)2 D3 = 100; for stimulation of transcaltachia (in words, FIG. 11): perfusion with 300 pM or 650 pM analog, reference 650 pM 1α,25(OH)2 D3, within first four minutes
Procedure: Duodenal loops from normal, vitamin D-replete chicks were lumenally perfused with ^45 Ca^2+ (5 uCi/ml of buffer). To establish basal transport rates, celiac artery of controls were perfused with control medium for the first 20 min. The duodena were then either re-exposed to control medium containing the vehicle ethanol (0.005%, final concentration) through the celiac artery, or vascularly perfused with 300 pM or 650 pM agonist analogs JM or JN or with 650 pM of a control reference compound 1α,25(OH)2 D3. The venous effluent was collected at 2 min intervals for liquid scintillation spectrophotometry of the ^45 Ca^2+. […] Values represent mean ±SEM for n=4 in each group.
The data shown in FIG. 13 are the mean ±SEM from 4-5 duodena. […] Open circles represent the negative control receiving no treatment with 1α,25(OH)2 D3 or analog. […] Data represent the ratio of treated to basal values ±SEM extracted from a time-course plot (as in panel A) at 32 minutes.
This example describes the assay used for testing rapid response transcaltachia described in J. Biol. Chem, 268: 13811-13819 (1993).
White Leghorn cockerels (Hyline International, Lakeview, Calif.) were obtained on the day of hatch and maintained on a vitamin D-supplemented diet (1.0% calcium and 1.0% phosphorus; O. H. Kruse Grain and Milling, Ontario, Calif.) for 5-6 weeks to prepare normal vitamin D3 -replete chicks for use in the transcaltachia studies.
Measurements of ^45 Ca^2+ transport were carried out in perfused chick duodena. Normal vitamin D-replete chicks weighing approximately 500 g were anesthetized with 0.3 ml per 100 g Chloropent (Fort Dodge, Iowa), and the duodenal loop was surgically exposed. The celiac vein and blood vessels branching off from the celiac artery were ligated before cannulation of the celiac artery itself, and vascular perfusion was immediately initiated. Both the celiac artery and vein of the duodena were perfused with modified Grey's balanced salt solution (GBSS) +0.9 mM Ca which was oxygenated with 95% O2 and 5% CO2. A basal transport rate was established by perfusion with control medium for 20 minutes after the intestinal lumen was filled with ^45 Ca^2+. The tissue was then exposed to 1α,25(OH)2 D3 or analogs or reexposed to control medium for an additional 40 minutes. The vascular perfusate was collected at 2 min intervals during the last 10 min of the basal and during the entire treatment period. Duplicate 100 μl aliquots were taken for determination of the ^45 Ca^2+ levels by liquid scintillation spectrometry.

[2] = tested on: MAP-kinase p42^mapk in NB4 cells; experiment: MAP-kinase activation (p42mapk phosphorylation) in NB4 cells; assay type: cell-based, human
Procedure: In order to determine whether MAP-kinase phosphorylation is specific and is altered by 1α,25(OH)2 D3, the time-dependent effects of 1α,25(OH)2 D3 on p42^mapk phosphorylation was examined using human acute promyelocytic leukemia cells (NB4). In this study, the NB4 cells, cultured in 10% charcoal-stripped fetal calf serum (FCS) medium, were treated with 1α,25(OH)2 D3 at 10^-8 M for various time periods. Cells were then extracted and the phosphorylated MAP-kinase was immunoprecipitated with anti-phosphotyrosine antibody and further analyzed by Western blot using the antibodies against p42^mapk.
The lysate was further processed for anti-phosphotyrosine immunoprecipitation. […] After transferring the proteins to the PVDF membrane, the membrane was further incubated with primary anti-p42^mapk antibodies that were (+) or were not (-) pre-exposed to MAP-kinase peptide.
This example describes assays used for measurement of MAP-kinase activity in NB4 cells.
Cell culture of NB4 cells
The cell line is characterized by a translocation involving chromosomes 15 and 17, which is typical of the classical form of APL-M3 in the French-American-British [FAB] classification. NB4 cells were cultured in DMEM/F12 medium with 10% FCS at 5% CO2 balanced air and were routinely passaged as suspension cultures and only passages 8 to 20 were used for each assay.
Immunoprecipitation of Tyrosine-Phosphorylated Proteins
NB4 cells were cultured in 60-mm diameter dishes and treated with 1,25(OH)2 D3 or analogs in 4 ml of DMEM/F12 containing 10% charcoal-stripped FCS.
Insoluble material was removed in a microcentrifuge at 14,000 rpm for 10 min. Protein concentration was determined with a protein assay kit (Bio-Rad Lab, Hercules, Calif.). For immunoprecipitation, the supernatant was incubated with bead-conjugated monoclonal anti-phosphotyrosine antibody overnight at 4° C. The immunoprecipitates containing the tyrosine-phosphorylated proteins were washed four times with freshly-prepared RIPA buffer and further eluted with 2× Laemmli gel buffer.
At this point, the samples were either stored at -20° C. for further use or processed via Western blots. Equal loading of MAP-kinase protein was determined by running the Western blots using polyclonal anti-p42^mapk antibody. For this purpose, samples were aliquoted from each cell extract before immunoprecipitation.
SDS Gel Electrophoresis and Western blot
The membrane was further immunoblotted using a rabbit anti-p42^mapk polyclonal antibody overnight at 4° C. followed by incubation with secondary horseradish peroxidase-conjugated mouse anti-rabbit antibody for 1 hr at 25° C. The phosphorylated MAP-kinase bands were then visualized by enhanced chemiluminescence (ECL). A Ultrascan LX Laser Densitometer (LKB, Bromma, Sweden) scanned the density of the immuno-phosphoprotein bands. The results were normalized by protein loading and further plotted as percent of control of the band density.

[3] = tested on: chloride channels in ROS 17/2.8 cells; settings: 1 nM HL in the bath; 1α,25(OH)2 D3 5 nM or less
Procedure: In each case, at least a 3-min period was allowed after the addition of the analog to the bath for currents to reach a stable amplitude value. […] Anion currents were isolated from inward Ba^2+ currents after blockade of Ca^2+ channels with 100 μM Cd^2+.

[4] = tested on: VDRmem; experiment: Binding to membrane receptor VDRmem; settings: relative to 1α,25(OH)2 D3

## C=C1/C(=C\C=C2/CCC[C@]3(C)[C@@H]([C@H](C)CCCC(C)(C)O)CC[C@@H]23)C[C@@H](O)C[C@H]1O [HL]
[1]; HL 12 pM in combination with 1α,25(OH)2 D3 300 pM
  transcaltachia caused by 1α,25(OH)2 D3 in presence of HL: particularly observable
[1]; HL 60 pM in advance of 300 pM 1α,25(OH)2 D3
  inhibition of 1α,25(OH)2 D3-stimulated transcaltachia: clear inhibition of transcaltachia
[1]; HL 400 pM, 1α,25(OH)2 D3 300 pM
  inhibition of 1α,25(OH)2 D3-stimulated transcaltachia: clearly inhibited
[1]; HL administered before 1α,25(OH)2 D3 / FIG. 13 overall
  inhibition of 1α,25(OH)2 D3-stimulated transcaltachia: almost completely inhibited; also recorded: potent ability of 1β,25(OH)2 D3 (HL) to block or antagonize
[2]; HL 10^-9 M with 1α,25(OH)2 D3 at 1, 10 or 100×10^-10 M, 5 min
  antagonism of 1α,25(OH)2 D3-mediated MAP-kinase activation: antagonist of activation of MAP-kinases; also recorded: capable of antagonizing rapid responses; also recorded: able to block 1α,25(OH)2 D3
[2]; HL alone
  stimulation of MAP-kinase by analog alone: no stimulation of MAP-kinase
[3]
  antagonism of 1α,25(OH)2 D3-stimulated chloride channel opening: capable of antagonizing rapid responses; also recorded: inhibit the ability of 1α,25(OH)2 D3 to increase outward currents

## C[C@H](CCCC(C)(C)O)[C@H]1CC[C@H]2C3=CC=C4C[C@@H](O)C[C@H](O)[C@]4(C)[C@H]3CC[C@]12C [JM]
[1]
  Rapid Trans-Caltachia, relative to 1α,25(OH)2 D3: 60%
  stimulation of transcaltachia (in words, FIG. 11): comparable or better than the reference compound

## C[C@H](CCCC(C)(C)O)[C@H]1CC[C@H]2C3=CC=C4C[C@@H](O)C[C@H](O)[C@@]4(C)[C@@H]3CC[C@]12C [JN]
[1]
  Rapid Trans-Caltachia, relative to 1α,25(OH)2 D3: 105%
  stimulation of transcaltachia (in words, FIG. 11): comparable or better than the reference compound
[2]; 1 minute
  activation of MAP-kinase versus 1α,25(OH)2 D3: more than 1α,25(OH)2 D3
[2]; 5 minute
  activation of MAP-kinase versus 1α,25(OH)2 D3: only slightly less active
[4]
  binding to VDRmem receptor: 105%

## C[C@H](CCCC(C)(C)O)[C@H]1CC[C@H]2C3=CC=C4C[C@@H](O)C[C@H](O)[C@@]4(C)[C@H]3CC[C@]12C [JO]
[1]
  Rapid Trans-Caltachia, relative to 1α,25(OH)2 D3: 50%

## C[C@H](CCCC(C)(C)O)[C@H]1CC[C@H]2C3=CC=C4C[C@@H](O)C[C@H](O)[C@]4(C)[C@@H]3CC[C@]12C [JP]
[1]
  Rapid Trans-Caltachia, relative to 1α,25(OH)2 D3: 60%
